From patent US8192962B2, “Processes for detecting toxic substances” (Daikin Industries, Ltd., priority 2001, dated 2012)

Tested on: Metabolism protein genes
Assay: DNA chip mRNA expression in yeast, metabolism protein genes (Table 7)
Format: cell-based, Saccharomyces cerevisiae S288C
Method in brief: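 In this screen, yeast in logarithmic growth are challenged for two hours with a toxic substance at a non-lethal inhibitory concentration. Their mRNA, converted to Cy3- or Cy5-labeled cDNA, hybridizes at 65° C. to a chip spanning every yeast gene, and expression is expressed as a ratio to untreated cells.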

CCCCCCCCCCCCc1ccc(S(=O)(=O)[O-])cc1.[Na+] [(17), sodium dodecylbenzosulfonate]
The level of expressed mRNA in the presence of chemical substance/The level of expressed mRNA in the absence of chemical substance (yeast gene YAL012W): 0.9
The level of expressed mRNA in the presence of chemical substance/The level of expressed mRNA in the absence of chemical substance (yeast gene YAL038W): 1.0
level of expressed mRNA in the presence/in the absence of chemical substance (yeast gene YBR003W): 1.1
level of expressed mRNA in the presence/in the absence of chemical substance (yeast gene YBR011C): 0.8
level of expressed mRNA in the presence/in the absence of chemical substance (yeast gene YBR020W): 0.8
The level of expressed mRNA in the presence of chemical substance/The level of expressed mRNA in the absence of chemical substance (yeast gene YBR023C): 0.7
The level of expressed mRNA in the presence of chemical substance/The level of expressed mRNA in the absence of chemical substance (yeast gene YBR029C): 0.6
The level of expressed mRNA in the presence of chemical substance/The level of expressed mRNA in the absence of chemical substance (yeast gene YBR183W): 1.4
The level of expressed mRNA in the presence of chemical substance/The level of expressed mRNA in the absence of chemical substance (yeast gene YBR222C): 0.8
The level of expressed mRNA in the presence of chemical substance/The level of expressed mRNA in the absence of chemical substance (yeast gene YBR256C): 2.6
The level of expressed mRNA in the presence of chemical substance/The level of expressed mRNA in the absence of chemical substance (yeast gene YCL009C): 1.1
The level of expressed mRNA in the presence of chemical substance/The level of expressed mRNA in the absence of chemical substance (yeast gene YCL064C): 0.3
level of expressed mRNA in the presence/in the absence of chemical substance (yeast gene YCR010C): 1.9
level of expressed mRNA in the presence/in the absence of chemical substance (yeast gene YCR034W): 0.9
The level of expressed mRNA in the presence of chemical substance/The level of expressed mRNA in the absence of chemical substance (yeast gene YCR048W): 1.2
The level of expressed mRNA in the presence of chemical substance/The level of expressed mRNA in the absence of chemical substance (yeast gene YCR098C): 1.7
The level of expressed mRNA in the presence of chemical substance/The level of expressed mRNA in the absence of chemical substance (yeast gene YDR019C): 1.2
level of expressed mRNA in the presence/in the absence of chemical substance (yeast gene YDR050C): 1.1
level of expressed mRNA in the presence/in the absence of chemical substance (yeast gene YDR073W): 1.8
level of expressed mRNA in the presence/in the absence of chemical substance (yeast gene YDR123C): 1.3
level of expressed mRNA in the presence/in the absence of chemical substance (yeast gene YDR178W): 1.2
level of expressed mRNA in the presence/in the absence of chemical substance (yeast gene YDR277C): 1.2
level of expressed mRNA in the presence/in the absence of chemical substance (yeast gene YDR284C): 1.5
level of expressed mRNA in the presence/in the absence of chemical substance (yeast gene YDR345C): 1.3
The level of expressed mRNA in the presence of chemical substance/The level of expressed mRNA in the absence of chemical substance (yeast gene YDR380W): 0.8
level of expressed mRNA in the presence/in the absence of chemical substance (yeast gene YDR400W): 1.1
level of expressed mRNA in the presence/in the absence of chemical substance (yeast gene YDR408C): 1.1
level of expressed mRNA in the presence/in the absence of chemical substance (yeast gene YDR483W): 1.2
The level of expressed mRNA in the presence of chemical substance/The level of expressed mRNA in the absence of chemical substance (yeast gene YDR497C): 1.6
The level of expressed mRNA in the presence of chemical substance/The level of expressed mRNA in the absence of chemical substance (yeast gene YDR502C): 0.9
The level of expressed mRNA in the presence of chemical substance/The level of expressed mRNA in the absence of chemical substance (yeast gene YDR516C): 1.1
level of expressed mRNA in the presence/in the absence of chemical substance (yeast gene YEL063C): 0.7
level of expressed mRNA in the presence/in the absence of chemical substance (yeast gene YER015W): 1.6
The level of expressed mRNA in the presence of chemical substance/The level of expressed mRNA in the absence of chemical substance (yeast gene YER026C): 1.7
The level of expressed mRNA in the presence of chemical substance/The level of expressed mRNA in the absence of chemical substance (yeast gene YER053C): 1.2
The level of expressed mRNA in the presence of chemical substance/The level of expressed mRNA in the absence of chemical substance (yeast gene YER069W): 1.1
level of expressed mRNA in the presence/in the absence of chemical substance (yeast gene YER081W): 1.1
The level of expressed mRNA in the presence of chemical substance/The level of expressed mRNA in the absence of chemical substance (yeast gene YER096W): 1.0
level of expressed mRNA in the presence/in the absence of chemical substance (yeast gene YER120W): 1.2
The level of expressed mRNA in the presence of chemical substance/The level of expressed mRNA in the absence of chemical substance (yeast gene YER178W): 1.1
level of expressed mRNA in the presence/in the absence of chemical substance (yeast gene YFL011W): 0.8
The level of expressed mRNA in the presence of chemical substance/The level of expressed mRNA in the absence of chemical substance (yeast gene YFL014W): 1.5
The level of expressed mRNA in the presence of chemical substance/The level of expressed mRNA in the absence of chemical substance (yeast gene YFL030W): 1.0
The level of expressed mRNA in the presence of chemical substance/The level of expressed mRNA in the absence of chemical substance (yeast gene YFL031W): 1.2
The level of expressed mRNA in the presence of chemical substance/The level of expressed mRNA in the absence of chemical substance (yeast gene YFL056C): 1.0
The level of expressed mRNA in the presence of chemical substance/The level of expressed mRNA in the absence of chemical substance (yeast gene YFL057C): 1.6
The level of expressed mRNA in the presence of chemical substance/The level of expressed mRNA in the absence of chemical substance (yeast gene YFR047C): 1.5
level of expressed mRNA in the presence/in the absence of chemical substance (yeast gene YGL012W): 0.9
The level of expressed mRNA in the presence of chemical substance/The level of expressed mRNA in the absence of chemical substance (yeast gene YGL022W): 0.9
level of expressed mRNA in the presence/in the absence of chemical substance (yeast gene YGL115W): 0.8
The level of expressed mRNA in the presence of chemical substance/The level of expressed mRNA in the absence of chemical substance (yeast gene YGL126W): 0.9
level of expressed mRNA in the presence/in the absence of chemical substance (yeast gene YGL205W): 3.9
The level of expressed mRNA in the presence of chemical substance/The level of expressed mRNA in the absence of chemical substance (yeast gene YGL209W): 1.1
The level of expressed mRNA in the presence of chemical substance/The level of expressed mRNA in the absence of chemical substance (yeast gene YGL248W): 1.1
The level of expressed mRNA in the presence of chemical substance/The level of expressed mRNA in the absence of chemical substance (yeast gene YGR037C): 1.4
The level of expressed mRNA in the presence of chemical substance/The level of expressed mRNA in the absence of chemical substance (yeast gene YGR055W): 0.7
level of expressed mRNA in the presence/in the absence of chemical substance (yeast gene YGR096W): 0.8
level of expressed mRNA in the presence/in the absence of chemical substance (yeast gene YGR191W): 0.8
The level of expressed mRNA in the presence of chemical substance/The level of expressed mRNA in the absence of chemical substance (yeast gene YGR194C): 1.1
level of expressed mRNA in the presence/in the absence of chemical substance (yeast gene YGR204W): 1.0
The level of expressed mRNA in the presence of chemical substance/The level of expressed mRNA in the absence of chemical substance (yeast gene YGR256W): 1.1
The level of expressed mRNA in the presence of chemical substance/The level of expressed mRNA in the absence of chemical substance (yeast gene YGR282C): 1.1
level of expressed mRNA in the presence/in the absence of chemical substance (yeast gene YGR288W): 1.2
level of expressed mRNA in the presence/in the absence of chemical substance (yeast gene YHR025W): 1.0
The level of expressed mRNA in the presence of chemical substance/The level of expressed mRNA in the absence of chemical substance (yeast gene YHR111W): 1.1
level of expressed mRNA in the presence/in the absence of chemical substance (yeast gene YHR123W): 1.1
The level of expressed mRNA in the presence of chemical substance/The level of expressed mRNA in the absence of chemical substance (yeast gene YHR137W): 0.8
The level of expressed mRNA in the presence of chemical substance/The level of expressed mRNA in the absence of chemical substance (yeast gene YHR174W): 1.0
The level of expressed mRNA in the presence of chemical substance/The level of expressed mRNA in the absence of chemical substance (yeast gene YHR176W): 1.4
level of expressed mRNA in the presence/in the absence of chemical substance (yeast gene YHR210C): 1.4
level of expressed mRNA in the presence/in the absence of chemical substance (yeast gene YIL006W): 0.8
The level of expressed mRNA in the presence of chemical substance/The level of expressed mRNA in the absence of chemical substance (yeast gene YIL045W): 1.1
The level of expressed mRNA in the presence of chemical substance/The level of expressed mRNA in the absence of chemical substance (yeast gene YIL107C): 1.2
The level of expressed mRNA in the presence of chemical substance/The level of expressed mRNA in the absence of chemical substance (yeast gene YIL154C): 1.2
The level of expressed mRNA in the presence of chemical substance/The level of expressed mRNA in the absence of chemical substance (yeast gene YIL155C): 1.1
The level of expressed mRNA in the presence of chemical substance/The level of expressed mRNA in the absence of chemical substance (yeast gene YIR034C): 1.0
The level of expressed mRNA in the presence of chemical substance/The level of expressed mRNA in the absence of chemical substance (yeast gene YIR036C): 1.5
The level of expressed mRNA in the presence of chemical substance/The level of expressed mRNA in the absence of chemical substance (yeast gene YJL031C): 1.2
The level of expressed mRNA in the presence of chemical substance/The level of expressed mRNA in the absence of chemical substance (yeast gene YJL068C): 1.4
The level of expressed mRNA in the presence of chemical substance/The level of expressed mRNA in the absence of chemical substance (yeast gene YJL088W): 1.4
The level of expressed mRNA in the presence of chemical substance/The level of expressed mRNA in the absence of chemical substance (yeast gene YJL099W): 1.2
level of expressed mRNA in the presence/in the absence of chemical substance (yeast gene YJL121C): 1.1
level of expressed mRNA in the presence/in the absence of chemical substance (yeast gene YJL167W): 1.4
The level of expressed mRNA in the presence of chemical substance/The level of expressed mRNA in the absence of chemical substance (yeast gene YJL172W): 1.8
level of expressed mRNA in the presence/in the absence of chemical substance (yeast gene YJL216C): 1.2
The level of expressed mRNA in the presence of chemical substance/The level of expressed mRNA in the absence of chemical substance (yeast gene YJL219W): 1.6
level of expressed mRNA in the presence/in the absence of chemical substance (yeast gene YJR077C): 1.0
The level of expressed mRNA in the presence of chemical substance/The level of expressed mRNA in the absence of chemical substance (yeast gene YJR137C): 0.9
level of expressed mRNA in the presence/in the absence of chemical substance (yeast gene YJR143C): 0.7
The level of expressed mRNA in the presence of chemical substance/The level of expressed mRNA in the absence of chemical substance (yeast gene YJR148W): 1.3
